Laboratory results taken from patent publication EP0358766A1, “METHOD OF STERILIZING PLANT ANTHERS” (VSESOJUZNY NAUCHNO-ISSLEDOVATELSKY INST. SELSKOKHOZYAISTV. …, priority 1988, dated 1989).

Key:
[1] = system: tetraploidem Roggen Belta; assay: Field test of gametocidal activity, tetraploid rye Belta; assay type: in vivo; conditions: period V, 1% aqueous emulsion, 6 kg/ha in 600 l water; for Prozentsatz des Ansetzens von Samen bei freier Bestäubung: control = 100
Description: (§1) Die gametozide Aktivität der erfindungsgemäßen Sterilisationsmittel war in Feldversuchen in verschiedenen bodenklimatischen Zonen mit Teilstücken von 10 m^2 Größe in dreibis viermaliger Wiederholung festgestellt. Jedes Sterilisationsmittel wurde mindenstens 5 Jahre lang geprüft.
(§2) Die Entwicklung der Perioden der Organogenese wird zytologisch überwacht. Die Behandlung von Pflanzen mit dem Sterilisationsmittel erfolgt am Anfang der fünften Periode der Organogenese nach Kupermann.
(§3) Mit dem Ährenschieben verwirklicht man die Isolierung von Hauptähren und anderen Stockwerken in Pergametbeuteln. Bei Weizen und Tritikale werden Einzelisolatoren benutzt. Bei Roggen schließt man je 1 Ähre von […] verschiedenen nebeneinander befindlichen Pflanzen unter einen gemeinsamen Isolator ein. Bei Hirse wird jede Rispe getrennt isoliert. Der Sterilitätsprozentsatz (X) für Weizen, Roggen, Tritikale und Hirse wird nach der Formel [formula] ermittelt.
(§4) Die Kornzahl in nicht isolierten Ähren von Kontrollpflanzen wird bedingt für 100 % Ansetzen bei freier Bestäubung angenommen.
(§5) Um zuverlässige Angaben zu erhalten, verwendet man 20 bis 25 Isolatoren je Wiederholung für Weizen und Tritikale, 10 bis 15 Isolatoren jeder Wiederholung für Roggen und Hirse.
Pflanzen von tetraploidem Roggen Belta werden in der V.Periode der Organogenese (nach Kupermann) mit einer 1%igen wäßrigen Emulsion von 1,1,3-Tribrompropan, 1,1,3--Tribrom-4-chlorbutan, 1,1,2,3-Tetrabrompropan, 1,2,3-Tribrompropan, 1,1,3-Tribrom-3-chlorpropan bzw. 1,2-Dibrom--3-chlorpropan behandelt.
Die Emulsion enthält 0,5 Masse% C12-C14-Kalziumalk^yl-benzolsulfonat und 0,01 Masse% Dimethylsulfoxid. Der Verbrauch an Präparat beträgt 6 kg/ha bei 600 1 Wasserdurchsatz.Die Prüfergebnisse sind in der Tabelle 7 angegeben. Die gleichen Ergebnisse sind bei der Behandlung von tetraploidem Roggen Belta in der VI. Periode der Organogenese erhalten.

[2] = system: diploidem Roggen Voskhod 2; assay: Field test of gametocidal activity, diploid rye Voskhod 2; assay type: in vivo; conditions: period V, 1% aqueous emulsion, 10 kg/ha in 1000 l water; for Prozentsatz des Ansetzens von Samen bei freier Bestäubung: control = 100
Description: as §1, §2, §3, §4, §5
Pflanzen von diploidem Roggen Voskhod 2 werden in der V. Periode der Organogenese mit einer 1%igen wäßrigen Emulsion von 1,1,3-Tribrompropan, 1,1,3-Tribrom-4-chlorbutan bzw. 1,1,2,3-Tetrabrompropan behandelt. Die Emulsion enthält 0,5 Masse% C12-C14-Kalziumalkylbenzolsulfonat und 0,01 Masse% Dimethylformamid. Der Verbrauch an Präparat beträgt 10 kg/ha bei 1000 1 Wasserdurchsatz. Die Prüfergebnisse sind in der Tabelle 14 angegeben. Die gleichen Ergebnisse sind bei der Behandlung von diploidem Roggen Voskhod 2 in der VI. Periode der Organogenese erhalten..

[3] = system: Winterweizens Sorte Mironowskaya 808; assay: Field test of gametocidal activity (anther sterilisation), winter wheat Mironowskaya 808; assay type: in vivo, Weizen; conditions: for Kornzahl der Ähre bei freier Bestäubung / Kornzahl der Ähre im Isolator / Prozentsatz des Ansetzens von Samen bei freier Bestäubung: Mironowskaya 808, period V of organogenesis; for Prozentsatz des Ansetzens von Samen bei freier Bestäubung: control = 100
Description: as §1, §2, §3, §4, §5
Pflanzen des Winterweizens Sorte Mironowskaya 808 werden in der V.Periode der Organogenese durch Zerstäubung der 2%igen wäßrigen Emulsion von 1,1,3-Tribrompropan mit Hilfe einer Rückenspritze behandelt.
Als Emulgierungsmittel setzt man 0,5 Masse% C12-C14--Kalziumalkylbenzolsulphonat zu. Als Adjuvans enthält die Emulsion 0,01 Masse% Dimethylsulfoxid. Der Verbrauch an Präparat beträgt 20 kg/ha bei 1000 Liter Wasserdurchsatz. Als Kontrolle dienen Pflanzen, behandelt mit einem Verdünner ohne Sterilisationsmittel. Die Ergebnisse sind in der Tabelle 1 angegeben.
Der ProzeB wird analog zu dem in Beispiel 1 beschriebenen durchgeführt. Als Sterilisationsmittel verwendet man eine 2%ige waßrige Emulsion von 1,1,3-Tribrom-4-chlorbutan, 1,1,2,3-Tetrabrompropan. Die Prüfergebnisse sind in der Tabelle 1 angegeben.
Der Prozeß wird analog zu dem in Beispiel 1 beschriebenen durchgeführt, nur daß man 1%ige wäßrige Emulsion von 1,2,3-Tribrompropan, 1,2-Dibrompropan, 1,1,3-Tribrom-3--chlorpropan, 1,2-Dibrom-3-chlorpropan, 1,3-Dibrompropan, 1,1,1,3-Tetrabromheptan, 1,1,3-Tribromheptan, 1,2-Dibromheptan verwendet. Die Präparatdosis beträgt 10 kg ha. Die Prüfergebnisse sind in der Tabelle 1 angegeben. Die gleichen Ergebnisse sind bei der Behandlung des Weizens Sorte Mironowskaya 808 in der VI. Periode der Organogenese erhalten.

[4] = system: Winterweizens Sorte Mironowskaya 808; assay: as above; assay type: in vivo, Weizen; conditions: read-out: Prozentsatz der Sterilität %
[5] = system: diploidem Roggen Chulpan; assay: Field test of gametocidal activity, diploid rye Chulpan; assay type: in vivo; conditions: for Kornzahl der Ähre bei freier Bestäubung / Kornzahl der Ähre im Isolator / Prozentsatz des Ansetzens von Samen bei freier Bestäubung: Chulpan, period V, 1% aqueous emulsion, 10 kg/ha; for Prozentsatz des Ansetzens von Samen bei freier Bestäubung: control = 100; for pest or weed control at 10000 g/ha: read-out: Prozentsatz der Sterilität
Description: as §1, §2, §3, §4, §5
Pflanzen von diploidem Roggen Chulpan werden in der V.Periode der Organogenese mit einer 1%igen wäßrigen Emulsion von 1,1,3-Tribrompropan, 1,1,3-Tribrom-4-chlorbutan, 1,1,2,3-Tetrabrompropan, 1,2,3-Tribrompropan, 1,2-Dibrompropan, 1,1,3-Tribrom-3-ohlorpropan, 1,2-Dibrom-3--chlorpropan, 1,3-Dibrompropan, 1,1,1,3-Tetrabromheptan, 1,1,3-Tribromheptan bzw. 1,2-Dibromheptan behandelt. Die Emulsion enthält 0,5 Masse% C12-C14-Kalziumalkylbenzolsul- fonat und 0,01 Masse% Dimethylsulfoxid. Der Verbrauch an Präparat beträgt 10 kg/ha. Die Prüfergebnisse sind in der Tabelle 11 angegeben. Die gleichen Ergebnisse sind bei der Behandlung von diploidem Roggen Chulpan in der VI. Periode der Organogenese erhalten.

[6] = system: Sommerweizens Sorte Moskowskaya 35; assay: Field test of gametocidal activity, spring wheat Moskowskaya 35; assay type: in vivo, Weizen; conditions: for Kornzahl der Ähre bei freier Bestäubung / Kornzahl der Ähre im Isolator / Prozentsatz des Ansetzens von Samen bei freier Bestäubung: Moskowskaya 35, period V, 1% aqueous emulsion, 6 kg/ha in 600 l water; for Prozentsatz des Ansetzens von Samen bei freier Bestäubung: control = 100; for pest or weed control at 6000 g/ha: read-out: Prozentsatz der Sterilität
Description: as §1, §2, §3, §4, §5
Pflanzen des Sommerweizens Sorte Moskowskaya 35 werden in der V. Periode der Organogenese (nach Kupermann) mit einer l%igen wäßrigen Emulsion von 1,1,3-Tribrompropan, […], 1,1,2,3-Tetrabrompropan, 1,2,3-Tribrompropan, 1,2-Dibrompropan, 1,1,3-Tribrom-3-chlorpropan, 1,2-Dibrom-3-chlorpropan, 1,3-Dibrompropan, 1,1,1,3-Tetrabromheptan bzw. 1,1,3-Tribromheptan behandelt. Die Emulsion enthält als Emulgierungsmittel 0,5 Masse% C12-C14-Kalzium- alkylbenzolsulfonat und als Adjuvans 0,01 Masse% Dimethylformamid. Der Verbrauch an Präparat beträgt 6 kg/ha bei 600 1 Wasserdurchsatz. Als Kontrolle dienen Pflanzen, behandelt mit dem Verdünner ohne Sterilisationsmittel.
Die Prüfergebnisse sind in der Tabelle 2 angegeben. Die gleichen Ergebnisse sind bei der Behandlung des Sommerweizens Sorte Moskowskaya 35 in der VI.Periode der Organogenese erhalten.

[7] = Toxicity in animal test (LD50); set-up: species or system Mäuse; conditions: in vivo, mice stated only for 1,1,3-Tribrompropan, species not given for the others
Description: Alle erfindungsgemäßen Polybromalkane, die als Sterilisationsmittel zur Verwendung kommen, waren auf die Toxizität im Tierversuch geprüft. Die Prüfergebnisse haben ergeben, daß die angegebenen Verbindungen von schwacher oder mittlerer Toxizität sind.

[8] = system: Hirse Sorte Mironovskoye 94; assay: Field test of gametocidal activity, millet Mironovskoye 94; assay type: in vivo
Description: as §1, §2, §3, §4, §5
Pflanzen der Hirse Sorte Mironovskoye 94 werden in der V.Periode der Organogenese mit einer 1%igen wäßrigen Emulsion von 1,1,3-Tribrompropan, 1,2,3-Tribrompropan, 1,2-Dibrompropan, 1,2-Dibrom-3-chlorpropan, 1,3-Dibrompropan, 1,1,1,3-Tetrabromheptan, 1,1,3-Tribromheptan, 1,2-Dibromheptan behandelt. Die Emulsion enthält 0,5 Masse% C12-C14--Kalziumalkylbenzolaulfonat und 0,01 Masse% Dimethylsulfoxid als Adjuvans. Der Verbrauch an Präparat beträgt 6 kg/ha bei 600 1 Wasserdurchsatz. Die Prüfergebnisse sind in der Tabelle 15 angegeben. Die gleichen Ergebnisse sind bei der Behandlung der Hirse Sorte Mironovskoye 94 in der VI. Periode der Organogenese erhalten.

[9] = system: Sommerweizens Sorte Botanicheskaya 4; assay: Field test of gametocidal activity, spring wheat Botanicheskaya 4; assay type: in vivo, Weizen; conditions: period V, 1% aqueous emulsion, 6 kg/ha in 600 l water
Description: as §1, §2, §3, §4, §5
Pflanzen des Sommerweizens Sorte Botanicheskaya 4 werden in der V. Periode der Organogenese (nach Kupermann) mit einer 1%igen wäßrigen Emulsion von 1,3-Dibrompropan, 1,1,1,3-Tetrabromheptan, 1,1,2-Tribromheptan bzw. 1,2--Dibromheptan behandelt. Die Emulsion enthält 0,5 Masse% C12-C14-Kalziumalkylbenzolsulfonat und 0,01 Masse% Dimethylsulfoxid als Adjuvans. Der Verbrauch an Präparat beträgt 6 kg/ha bei 600 1 Wasserdurchsatz. Als Kontrolle dienen Pflanzen, behandelt mit dem Verdünner ohne Sterilisationsmittel.
Die Prüfergebnisse sind in der Tabelle 4 angegeben. Die gleichen Ergebnisse sind bei der Behandlung des Sommerweizens Sorte Botanicheskaya 4 in der VI. Periode der Organogenese erhalten.

[10] = system: Sommerweizens Sorte Rodina; assay: Field test of gametocidal activity, spring wheat Rodina; assay type: in vivo, Weizen; conditions: period V, 1% aqueous emulsion, 6 kg/ha in 600 l water
Description: as §1, §2, §3, §4, §5
Pflanzen des Sommerweizens Sorte Rodina werden in der V.Periode der Organogenese (nach Kupermann) mit einer l%igen wäßrigen Emulsion von 1,3-Dibrompropan, 1,1,1,3-Tetrabromheptan, 1,1,3-Tribromheptan bzw. 1,2-Dibromheptan behandelt. Die Emulsion enthalt 0,5 Masse% C12-C14 Kalziumalk^ylbenzol- sulfonat und 0,01 Masse% Dodezylsulfat. Der Verbrauch an Präparat beträgt 6 Kg/ha bei 600 1 Wasserdurchsatz. Als Kontrolle dienen Pflanzen, behandelt mit dem Verdünner ohne Sterilisationsmittel.
Die Prüfergebnisse sind in der Tabelle 3 angegeben. Die gleichen Ergebnisse sind bei der Behandlung des Sommerweizens Sorte Rodina in der VI. Periode der Organogenese erhalten.

[11] = 2% aqueous emulsion, 20 kg/ha in 1000 l water
[12] = Mironovskoye 94, period V, 1% aqueous emulsion, 6 kg/ha in 600 l water

Compound	Kornzahl der Ähre bei freier Bestäubung [1]	Kornzahl der Ähre im Isolator [1]	Prozentsatz der Sterilität [1]	Prozentsatz des Ansetzens von Samen bei freier Bestäubung [1]	Kornzahl der Ähre bei freier Bestäubung [2]	Kornzahl der Ähre unter Isolator [2]	Prozentsatz der Sterilität [2]	Prozentsatz des Ansetzens von Samen bei freier Bestäubung [2]	Kornzahl der Ähre bei freier Bestäubung [3, 11]	Kornzahl der Ähre im Isolator [3, 11]	Prozentsatz des Ansetzens von Samen bei freier Bestäubung [3, 11]	pest or weed control at 1 %, 20000 g/ha [4]	Kornzahl der Ähre bei freier Bestäubung [5]	Kornzahl der Ähre im Isolator [5]	Prozentsatz des Ansetzens von Samen bei freier Bestäubung [5]	pest or weed control at 10000 g/ha [5]	Kornzahl der Ähre bei freier Bestäubung [6]	Kornzahl der Ähre im Isolator [6]	Prozentsatz des Ansetzens von Samen bei freier Bestäubung [6]	pest or weed control at 6000 g/ha [6]	also measured
ClCC(Br)CC(Br)Br (stereo not shown) [Beispiel 2, 1,1,3-Tribrom-4-chlorbutan]	42,6	0,8	98,0%	96,4%	52,4	1,0	97,2%	96,0%	41,3	1,1	86,0%	97.3%	47,8	1,0	95,4%	98%	36,5	0,6	95,5%	99.2%	–
BrCC(Br)C(Br)Br (stereo not shown) [Beispiel 3, 1,1,2,3-Tetrabrompropan]	40,1	0,6	98,5%	90,7%	45,7	0,2	99,6%	83,7%	35,1	1,0	94,1%	97.3%	44,3	0,4	88,4%	99.2%	31,8	0,3	83,2%	99.1%	–
BrCCCBr [Beispiel 8, 1,3-Dibrompropan]	–	–	–	–	–	–	–	–	–	–	–	–	41,7	0,1	83,2%	99.8%	32,7	0,0	85,6%	100%	LD50 [7]: 473 ± 25 mg/kg; Kornzahl der Rispe bei freier Bestäubung [8, 12]: 212,7; Kornzahl der Rispe im Isolator [8, 12]: 0,0; Prozentsatz des Ansetzens von Samen bei freier Bestäubung ([8]; Mironovskoye 94, period V, 1% aqueous emulsion, 6 kg/ha in 600 l water, control = 100): 86,9%; pest or weed control at 6000 g/ha ([8]; read-out: Prozentsatz der Sterilität): 100%; Kornzahl der Ähre bei freier Bestäubung ([3]; 1% aqueous emulsion, 10 kg/ha): 38,7; Kornzahl der Ähre im Isolator ([3]; 1% aqueous emulsion, 10 kg/ha): 0,0; Prozentsatz des Ansetzens von Samen bei freier Bestäubung ([3]; 1% aqueous emulsion, 10 kg/ha): 93,0%; pest or weed control at 1 %, 10000 g/ha ([3]; read-out: Prozentsatz der Sterilität %): 100%; Kornzahl der Ähre bei freier Bestäubung [9]: 24,7; Kornzahl der Ähre im Isolator [9]: 0,0; Prozentsatz der Sterilität [9]: 100,0%; Kornzahl der Ähre bei freier Bestäubung [10]: 37,1; Kornzahl der Ähre im Isolator [10]: 0,0; Prozentsatz der Sterilität [10]: 100,0%; Prozentsatz des Ansetzens von freier Bestäubung ([10]; control = 100): 91,8%
